# Data published in PubChem BioAssay AID652 (University of Pittsburgh Molecular Library Screening Center, 2007).
# Active and inactive are the calls of the source. The rule behind the calls is not given here.
# Target: Gag-Pol polyprotein (Human immunodeficiency virus type 1 group M subtype B (isolate HXB2)) (UniProt P04585)
# Assay: HIV-1 RT RNase H inhibitor potency, dose response, biochemical, probe assessment (AID 652)
# Conditions: HIV-1 RT RNase H enzymatic assay
row,SMILES,IC50
1,S=C(Nc1ccccn1)c1ccccn1,4.96 µM
2,Nc1c(S(=O)(=O)c2cccc(Cl)c2)c2nc3ccccc3nc2n1/N=C/c1ccc(O)c(O)c1,0.266 µM
3,COCCn1c(SCCN2CCOCC2)nc2c1c(=O)[nH]c(=O)n2C,> 50 µM (inactive)
4,S=C(c1ccc(-c2ccccc2Cl)o1)N1CCOCC1,0.926 µM
5,COc1ccc(-n2nc3cc(C)c(NC(=O)CC(C)C)cc3n2)cc1,8.06 µM
6,CCOc1cccc(C=Nc2cc(C)cc(C)c2O)c1O,> 50 µM (inactive)
7,S=C(c1ccc(Cl)cc1)N1CCOCC1,4.01 µM
8,CCOC(=O)N1CC=C2C(C#N)=C(N)C(C#N)(C#N)[C@H](c3ccc(OC(C)C)c(OCC)c3)[C@H]2C1,21.7 µM
9,C=CCOC(=O)C1=C(C)NC(SCC(=O)Nc2ccc(C)c(Cl)c2)=C(C#N)C1c1ccco1 (stereo not given),4.25 µM

# Same assay, conditions: HIV-1 RT RNase H enzymatic assay, inhibition, at 50 µM, stronger effect = higher value
row,SMILES,inhibition [%]
1,Cc1cc(NC(=O)CSc2nc3cc4c(cc3c(=O)n2CCc2ccccc2)OCO4)no1,76.9
2,c1ccc(Cc2nnc3sc(-c4ccncc4)nn23)cc1,80.4
3,c1ccc2[nH]c(SN3CCOCC3)nc2c1,74.2
4,c1ccc2c(c1)nnn2Cc1nnc2sc(-c3ccc4c(c3)OCCO4)nn12,85.3
5,Cc1oc(-c2ccc(Cl)cc2)cc1-c1nn2c(-c3ccoc3C)nnc2s1,78.4
6,Cc1cc(NC(=O)CSc2ccc(-c3nc4cc(C)c(C)cc4[nH]3)cn2)no1,83
7,Cc1cc(C)c2c(=O)n(CC(=O)NCCCN3CCOCC3)sc2n1,80.5
8,COc1cc(C(=O)Nc2oc(-c3ccccc3)c(-c3ccccc3)c2C#N)cc(OC)c1OC,94
9,COC(=O)c1oc2ccc(Br)cc2c1NC(=O)c1ccccc1,94
10,CC(C)c1nnc(NC(=O)c2c(O)c3cccc4c3n(c2=O)CCC4)s1,64.9
11,CN(C)c1cccc(C(=O)Nc2cccc(F)c2)c1,72
12,O=C(NC1CCCCC1)c1sc(=S)n2c1[nH]c(=O)c1ccccc12,96.5
13,CC1CC(C)(C)NC(=S)S1 (stereo not given),66
14,CCCCCn1c(SCCCC)nc2c1c(=O)[nH]c(=O)n2C,91.1
15,S=C(Nc1ccccn1)c1ccccn1,85.8
16,COC(=O)c1ccccc1S(=O)(=O)N(Cc1cc2cc3c(cc2[nH]c1=O)OCO3)C1CCCCC1,90.3
17,COC(=O)c1sc(N2C(=O)c3oc4ccccc4c(=O)c3C2c2cccs2)nc1C (stereo not given),95.8
18,COc1ccc(N2CSC3=C(C#N)C(c4cc(OC)c(OC)cc4OC)CC(=O)N3C2)c(OC)c1 (stereo not given),76.1
19,c1ccc(-c2ccc(-c3ccccn3)nn2)nc1,52.4
20,CCN1CCN(c2nc(C)nc3c2sc(=S)n3C)CC1,76.3
21,Nc1c(S(=O)(=O)c2cccc(Cl)c2)c2nc3ccccc3nc2n1/N=C/c1ccc(O)c(O)c1,96.3
22,Cc1nn(CCC#N)c2c1P(=S)(N1CCCC1)OC(c1ccc(F)cc1)=N2 (stereo not given),90.2

row,SMILES,inhibition [%]
1,O=C(CSc1ncn[nH]1)c1ccccc1,84.1
2,Nc1nnc(CSCc2ccc(F)cc2)s1,51.7
3,COCCn1c(SCCN2CCOCC2)nc2c1c(=O)[nH]c(=O)n2C,40
4,CC(C)(C)C1=Nn2c(nnc2-c2ccccn2)SC1,80.5
5,COCCn1c(-c2ccc(-c3ccccc3Cl)o2)nc2c1c(=O)[nH]c(=O)n2CC(C)C,85
6,COC(=O)c1ccccc1NC(=O)c1sc(=S)n(C)c1N,101
7,CCCCCC#CCC#CCC#CCC#CCCCC(=O)O,98
8,CCOc1ccc(S(=O)(=O)Nc2cc(Sc3ncn[nH]3)c3oc(=O)sc3c2)cc1,94.6
9,S=C(c1ccc(-c2ccccc2Cl)o1)N1CCOCC1,92.6
10,Cc1nn2c(-c3cccc(NC(=O)CSc4nc5ccccc5o4)c3)nnc2c2ccccc12,98.2
11,O=C(O)c1ccc2c(c1)NC(=O)C(N1CCCC1)S2 (stereo not given),75.8
12,COc1ccc(Cn2nnnc2C(c2cccnc2)N2CCN(c3ccc(O)cc3)CC2)cc1 (stereo not given),43
13,Cc1ccc(NC(=O)Cn2nnc(C(=O)Nc3ccc(C)c(C)c3)c2N)cc1,76.8
14,CCOC(=O)c1c(NC(=O)c2cc(C3CC3)on2)sc2c1CCCC2,97.1
15,Cc1ccc(-n2sc3ccccc3c2=O)cc1S(=O)(=O)N1CCCCC1,96.9
16,COC(=O)c1ccc2c(=O)n(Cc3ccco3)c(SCC(=O)Nc3ccccc3Cl)nc2c1,92.2
17,O=S(=O)(c1ccc(S(=O)(=O)N2CCN(C/C=C/c3ccccc3)CC2)cc1)N1CCCC1,96.9
18,Cc1nc(C)c(C(=O)Nc2nc3c(C)cccc3s2)o1,100
19,CCOc1ccc(-n2c(=O)c3c4c(sc3n(CC(=O)NCc3ccco3)c2=O)CCC4)cc1,89.9
20,Nc1sc2c(c1C(=O)NC1CCS(=O)(=O)C1)CCC2 (stereo not given),74.5
21,CCCCC[C@H](O)/C=C/[C@H]1C=CC(=O)[C@@H]1C/C=C\CCCC(=O)O,101
22,COc1ccc(-n2nc3cc(C)c(NC(=O)CC(C)C)cc3n2)cc1,93.4

row,SMILES,inhibition [%]
1,c1csc(-c2nn3c(C4COc5ccccc5O4)nnc3s2)c1 (stereo not given),97.1
2,CCOc1cccc(C=Nc2cc(C)cc(C)c2O)c1O,20.5
3,c1ccc2c(c1)ncn2Cc1nnc2sc(-c3ccc4c(c3)OCO4)nn12,93
4,CC(C)CNC(=O)c1c(N)n(/N=C/c2ccccn2)c2nc3ccccc3nc12,95
5,S=C(c1ccc(Cl)cc1)N1CCOCC1,73.5
6,c1ccc2c(c1)OCC(c1nnc3sc(-c4ccc5c(c4)OCO5)nn13)O2 (stereo not given),97.2
7,COc1ccccc1-c1nnc2n1N=C(c1ccc(O)c(O)c1)CS2,97
8,CCOC(=O)N1CC=C2C(C#N)=C(N)C(C#N)(C#N)[C@H](c3ccc(OC(C)C)c(OCC)c3)[C@H]2C1,98.5
9,Cc1cccc(N2CSC3=C(C#N)C(c4ccc(C)o4)CC(=O)N3C2)c1 (stereo not given),100
10,CCCc1cc(C(N)=O)c(NC(=O)C2CCCO2)s1 (stereo not given),98.3
11,Cc1cccc(OCC(=O)Nc2cccc(-c3nnc(-c4ccccc4)o3)c2)c1C,88.1
12,c1ccc(-n2ncc3c2ncn2nc(-c4ccco4)nc32)cc1,89.8
13,COc1ccc(OC)c(S(=O)(=O)Nc2ccc(O)c(Sc3ncn[nH]3)c2)c1,89.7
14,CCc1ccc(NC(=O)CSc2nc3cc(C(=O)OC)ccc3c(=O)n2Cc2ccco2)cc1,94.7
15,Cc1ccc(-n2c(N)c(C(=O)N3CCOCC3)sc2=S)cc1,75.9
16,Nc1c(C(=O)N2CCOCC2)sc(=S)n1-c1ccccc1,75.2
17,CC(C)Sc1nc2sc3c(c2c2nnc(SCC(=O)NCc4ccco4)n12)CCCC3,85.1
18,CCCCC(CC)Cn1c2nc3ccccc3nc2c2c(=N)oc(C)nc21 (stereo not given),95.5
19,N#Cc1c(NC(=O)c2ccc(Cn3cc(Br)cn3)o2)sc2c1CCCCCC2,98
20,CCOC(=O)Cc1csc(-n2sc3ccccc3c2=O)n1,96.4
21,CCCCCn1c(=O)c(C(=O)NCc2ccncc2)c(O)c2ccccc21,96
22,C=CCOC(=O)C1=C(C)NC(SCC(=O)Nc2ccc(C)c(Cl)c2)=C(C#N)C1c1ccco1 (stereo not given),98.7

row,SMILES,inhibition [%]
1,COC(=O)c1cccc(N2C(=O)C(Cl)=C(N3CCOCC3)C2=O)c1,29.2
2,N#Cc1c(SCC(=O)Nc2nccs2)nc2c(c1-c1ccco1)CCCC2,88.9
3,CCOC(=O)c1c(N)sc2c1CCC1C(=O)N(C3CCCCC3)C(=O)C21 (stereo not given),96.1
4,CC1(C)Cc2[nH]c(=S)c(C#N)cc2CO1,71.1
5,COc1cc(N=c2ssnc2Cl)cc(OC)c1OC,78.8
6,c1ccc(Cc2nn3c(COc4ccccc4)nnc3s2)cc1,86.8
7,COCCSc1ccccc1C(=O)Nc1cc(C)on1,65.1
8,Fc1ccc(-c2nnc3sc(-c4ccc5c(c4)OCO5)nn23)cc1,72.3
9,O=C(Nc1ccc(N2CCOCC2)cc1)c1ccc2nc(-c3ccco3)c(-c3ccco3)nc2c1,93.4
10,CCC1CC2(C)NC(=O)c3c(sc4c3CC(C)(C)OC4)N2C1=O (stereo not given),82.8
11,CCn1cc(C(=O)NCc2ccco2)c(=O)c2cc(S(=O)(=O)N3CCc4ccccc4C3)ccc21,76.8
12,Cc1sc2nc(C(C)Nc3ccccc3N3CCOCC3)[nH]c(=O)c2c1C (stereo not given),66.5
13,Cc1ccc(-n2c(N)c(C(=O)N3CCCCC3)sc2=S)cc1,79.5
14,CN(c1ccccc1)c1ccc(/C=c2\s/c(=C(/C#N)C(=O)C(C)(C)C)n(Cc3ccco3)c2=O)cc1,92.9
15,Cc1ccc(-n2c(N)c(C(=O)N3CCN(C)CC3)sc2=S)cc1,53.5
16,Cc1ccc2c(SCC(=O)NCc3ccco3)nc(-c3ccc(F)cc3)nc2c1,79.6
17,C=CCOc1ccc(CC2C(=O)N(C)C(=O)N(C)C2=O)cc1,101
18,COc1ccc(N2CCN(Cc3cc(=O)oc4cc(-c5ccccc5)c(O)cc34)CC2)cc1,96.2
19,Cc1ccc(/C=C/C2=Cc3c(sc(NC(=O)CSc4n[nH]c(N)n4)c3C#N)C(C)(C)C2)o1,91.1
20,CCn1c2ccccc2c2nc3cc(S(=O)(=O)N4CCOCC4)ccc3nc21,88.9
21,Cc1nn(CCc2nc(-c3ccco3)cs2)c2[nH]c(=O)cc(C(F)(F)F)c12,97.6
22,NC(=O)c1cc(-c2ccccc2)sc1NC(=O)Cc1ccc(S(=O)(=O)N2CCOCC2)s1,83.3

row,SMILES,inhibition [%]
1,CCOC(=O)c1sc(=S)n2c1[nH]c(=O)c1ccc(C(=O)OC)cc12,99.7
2,COC(=O)N(c1ccc(OC)cc1)P1(=S)OCCC(C)O1 (stereo not given),87.5
3,O=c1[nH]c(=O)n(-c2ccc(F)cc2)c(O)c1C=Nc1ccccc1N1CCCC1,83.7
4,CN1CCN(C(=O)c2sc(=S)n(-c3ccccc3)c2N)CC1,73.1
5,N#Cc1nc(-c2ccc(OCc3ccc(Cl)cc3)cc2)oc1NCc1cccnc1,99.4
6,COc1ccc(-n2c(SCC(=O)N3CCCC3)nc3c([nH]c4ccccc43)c2=O)cc1,66.7
7,COC(=O)c1ccc2c(=O)[nH]c(CN3c4ccccc4CC3C)nc2c1 (stereo not given),62.3
8,COC(=O)N(c1ccccc1)P1(=S)OCCO1,81.9
9,CCC(C)Sc1nc2c(c(=O)[nH]c(=O)n2C)n1CC(O)COc1cccc2ccccc12 (stereo not given),95
10,Cc1ccc2c(c1C)NC(C(=O)O)C1CC=CC21 (stereo not given),96.5
11,O=C1CC(c2ccccc2)Cc2nc(N3CCc4ccccc43)ncc21 (stereo not given),94.6
12,O=C(CSc1nc2ccccc2c2nc3ccccc3n12)NCc1ccco1,67.7
13,Cc1cccc(C)c1NC(=O)CSCC(=O)c1ccc(O)c(O)c1,94.7
14,CCOc1ccccc1N1CSC2=C(C#N)C(c3c(OC)ccc4ccccc34)CC(=O)N2C1 (stereo not given),92
15,Cc1cc(C(=O)CSc2nnc(-c3ccc(OC(F)F)cc3)o2)c(C)n1Cc1cccs1,74.6
16,O=C(Nc1ccc2nc(-c3ccco3)c(-c3ccco3)nc2c1)N1CCCCCC1,97
17,COC(=O)c1ccc2c(c1)N(Cc1nc(-c3cccc(C)c3)oc1C)C(=O)C1CCCN21 (stereo not given),78.1
18,CCc1ccccc1N1CSC2=C(C#N)C(c3cc(OC)c(OC)cc3OC)CC(=O)N2C1 (stereo not given),98.3
